Results as given in patent US4703044A, “Imidazoquinolines containing other heterocyclic groups, useful as anti-ulcer or anti-secretory agents” (John Wyeth & Brother Limited, priority 1983, dated 1987).
Like-named read-outs stand apart in the source and are kept apart here.

How the values were obtained:
H^+ /K^+ ATPase = molecular target: T1, H^+ /K^+ ATPase (Oryctolagus cuniculus, UniProt P27112); experiment: inhibition of 14C-aminopyrine accumulation in rabbit isolated gastric glands stimulated by DBcAMP or high K+ (H+/K+ ATPase inhibition); format: cell-based; conditions: 10^-4 M, 14C-aminopyrine uptake
T1 construct: Rabbit gastric glands are isolated from gastric mucosa from the corpus region of the stomach; from tissue; host or cells: isolated gastric glands from rabbit gastric mucosa, corpus region of the stomach
T1 sequence (P27112 whole entry): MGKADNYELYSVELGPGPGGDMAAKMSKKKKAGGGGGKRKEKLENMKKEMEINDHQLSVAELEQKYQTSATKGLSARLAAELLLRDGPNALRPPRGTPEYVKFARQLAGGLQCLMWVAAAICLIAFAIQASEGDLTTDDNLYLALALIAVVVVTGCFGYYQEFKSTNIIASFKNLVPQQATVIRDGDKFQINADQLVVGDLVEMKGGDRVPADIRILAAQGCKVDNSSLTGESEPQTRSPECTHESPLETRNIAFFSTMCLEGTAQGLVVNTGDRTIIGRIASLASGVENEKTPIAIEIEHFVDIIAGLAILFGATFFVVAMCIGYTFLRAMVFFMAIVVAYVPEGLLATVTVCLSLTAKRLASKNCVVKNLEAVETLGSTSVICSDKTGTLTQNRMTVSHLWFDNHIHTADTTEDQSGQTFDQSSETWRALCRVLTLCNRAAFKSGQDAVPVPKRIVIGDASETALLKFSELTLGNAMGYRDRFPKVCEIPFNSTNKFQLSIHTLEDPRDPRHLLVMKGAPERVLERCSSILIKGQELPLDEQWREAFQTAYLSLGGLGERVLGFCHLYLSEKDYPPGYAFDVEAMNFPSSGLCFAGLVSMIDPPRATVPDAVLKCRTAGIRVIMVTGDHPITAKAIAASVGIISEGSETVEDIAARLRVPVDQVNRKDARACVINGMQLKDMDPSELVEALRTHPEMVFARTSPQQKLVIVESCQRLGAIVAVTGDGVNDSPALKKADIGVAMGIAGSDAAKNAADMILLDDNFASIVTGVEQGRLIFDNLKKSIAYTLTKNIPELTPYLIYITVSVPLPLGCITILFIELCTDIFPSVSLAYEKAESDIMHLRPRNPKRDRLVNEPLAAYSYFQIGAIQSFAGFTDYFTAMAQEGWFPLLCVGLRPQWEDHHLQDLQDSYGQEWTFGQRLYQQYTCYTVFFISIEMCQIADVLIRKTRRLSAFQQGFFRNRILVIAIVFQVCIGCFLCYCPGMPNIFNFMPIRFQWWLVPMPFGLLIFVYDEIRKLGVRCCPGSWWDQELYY
T1 sequence (P18597 whole entry partner): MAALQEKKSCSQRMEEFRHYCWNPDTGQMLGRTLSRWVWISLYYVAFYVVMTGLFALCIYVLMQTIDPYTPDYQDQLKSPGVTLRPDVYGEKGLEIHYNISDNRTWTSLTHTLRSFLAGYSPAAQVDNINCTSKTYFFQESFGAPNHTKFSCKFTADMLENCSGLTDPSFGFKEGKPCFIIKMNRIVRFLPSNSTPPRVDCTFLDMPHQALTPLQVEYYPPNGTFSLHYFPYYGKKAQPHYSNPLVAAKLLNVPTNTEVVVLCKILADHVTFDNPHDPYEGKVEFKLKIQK
Protocol: Compounds of formula I were also tested for anti-secretory activity by their ability to inhibit the highly specific proton transporting enzyme H^+ /K^+ ATPase.
Potential H^+ /K^+ ATPase inhibitors are evaluated by a technique involving the measurement of aminopyrine accumulation in rabbit isolated gastric glands. Aminopyrine, which is a weak base, accumulates in acid-secreting cells; therefore, uptake of aminopyrine is increased by secretagogues and an inhibitor of acid secretion will reduce the response to one or more secretagogues depending upon its site of action. Compounds which reduce the response to dibutyryl cyclic adenosine monophosphate (DBcAMP) stimulation are assumed to have an intracellular site of action, and those which reduce the response to both DBcAMP and high potassium ion concentration (K^+) are thought to have an intracellular site of action at the secretory surface of the parietal cell, involving the highly specific proton - transporting enzyme, H^+ /K^+ ATPase. The following test procedure is used:
Rabbit gastric glands are isolated from gastric mucosa from the corpus region of the stomach by a method based on one described by Berglindh T., Obrink K. J., Acta Physiol. Scand. 96, 150-159 (1976). Measurement of aminopyrine uptake is carried out using a modification of the method described by Berglindh T., Hellander H. F., Obrink K. J. (ibid, 97, 401-414, 1976).
Compounds are tested at a concentration of 10^-4 M, initially, and in some cases at lower concentrations, for their ability to inhibit ^14 C-aminopyrine uptake in gastric glands, stimulated by DBcAMP and high K^+ respectively. Results are expressed as the % inhibition of the maximum response to the secretagogue induced by the test compound. An inhibitor of H^+ /K^+ ATPase would be expected to reduce the response to both secretagogues.

[1] = stress-induced erosion test (Senay and Levine), anti-ulcer activity; format: in vivo
Protocol: Anti-ulcer activity was determined by the stress-induced erosion test of Senay and Levine, Proc. Soc. Exp. Biol. Med., 124, 1221-3 (1967).

[2] = anti-secretory test of Shay et al (as exemplified by Beattie et al); format: in vivo; conditions: read-out: Anti-Secretory (Shay et al) % Change in volume
[3] = DBcAMP stimulation, read-out: % Inhibition to Stimulation by DBcAMP at 10^-4
[4] = high K+ stimulation, read-out: % Inhibition to Stimulation by K^+ at 10^-4

Structure (SMILES) | inhibition at 100 µM (H^+ /K^+ ATPase; [3]) [%] | inhibition at 100 µM (H^+ /K^+ ATPase; [4]) [%] | inhibition in vivo at 100 mg/kg [1] [%] | change in vivo at 30 mg/kg [2] [%]
Cc1cnc(CSc2nc3cccc4c3n2CCC4)c(C)c1 [Example 7, 5,6-Dihydro-2-(2-(3,5-dimethylpyridyl)methylthio)-[4H]-imidazo-[4,5,1-ij]quinoline] | 70 | 74 | – | –
[O-][S+](Cc1ccccn1)c1nc2cccc3c2n1CCC3 (stereo not drawn) [Example 2, 2-(2-Pyridylmethylsulphinyl)-5,6-dihydro-4H-imidazo-[4,5,1-ij]quinoline] | 97 | 65 | 60 | –
c1cc2c3c(c1)nc(SCc1ccncc1)n3CCC2 [Example 21, 5,6-Dihydro-2-(4-pyridylmethylthio)-4H-imidazo[4,5,1-ij]-quinoline] | 66 | – | – | –
COc1cc2c3c(c1)nc(SCc1ccncc1)n3CCC2 [Example 20, 5,6-Dihydro-8-methoxy-2-(4-pyridylmethylthio)-4H-imidazo[4,5,1-ij]quinoline] | 68 | – | – | –
COc1cc2c3c(c1)nc(SCc1ccc4ccccc4n1)n3CCC2 [Example 19, 5,6-Dihydro-8-methoxy-2-(quinolin-2-ylmethylthio)-4H-imidazo-[4,5,1-ij]quinoline] | 70 | 124 | – | –
c1ccc(-c2nc(CSc3nc4cccc5c4n3CCC5)cs2)cc1 [Example 9, 5,6-Dihydro-2-[(2-phenylthiazol-4-yl)methylthio]-4H-imidazo[4,5,1-ij]quinoline] | 75 | 122 | – | –
Cc1cccnc1CSc1nc2cccc3c2n1CCC3 [Example 3, 5,6-Dihydro-2-(2-(3-methylpyridyl)methylthio)-4-[H]-imidazo-[4,5,1-ij]quinoline] | – | -109 | 68 | –
c1ccc2nc(CSc3nc4cccc5c4n3CCC5)ccc2c1 [Example 11, 5,6-dihydro-2-(quinolin-2-ylmethylthio)-4H-imidazo[4,5,1-ij]quinoline] | 62 | 147 | – | 22
c1ccc(CSc2nc3cccc4c3n2CCC4)nc1 [Example 1, 5,6-Dihydro-2-(2-pyridylmethylthio)-4H-imidazo-[4,5,1-ij]-quinoline] | 34 | – | 69 | –
c1ccc(-c2cccc(CSc3nc4cccc5c4n3CCC5)n2)cc1 [Example 6, 5,6-Dihydro-2-(2-(6-phenylpyridyl)methylthio)-[4H]-imidazo-[4,5,1-ij]quinoline] | 36 | 182 | 58 | –
Cc1cnc(C[S+]([O-])c2nc3cccc4c3n2CCC4)c(C)c1 (stereo not drawn) [Example 8] | 48 | – | – | –
C1=Cc2cccc3nc(SCc4ccccn4)n(c23)C1 [Example 4, 2-(2-Pyridylmethylthio)-4[H]-imidazo-[4,5,1-ij]quinoline] | 16.7 | 35.5 | – | –
Cc1cccnc1C[S+]([O-])c1nc2cccc3c2n1CCC3 (stereo not drawn) [Example 5, 5,6-Dihydro-2-(2-(3-methylpyridyl)methylsulphinyl)-[4H]-imidazo-[4,5,1-ij]quinoline] | 66 | – | – | –
COc1cc2c3c(c1)nc(SCc1cccc(-c4ccccc4)n1)n3CCC2 [Example 10B, 5,6-Dihydro-8-methoxy-2-[(6-phenylpyridin-2-yl)-methylthio]-4H-imidazo[4,5,1-ij]quinoline] | 98 | 136 | – | –
